# Laboratory results taken from paper PMC9719519, “Non-classical ferroptosis inhibition by a small molecule targeting PHB2” (Nature Communications, 2022).
# Legend:
# Assay in all cases: biochemical
# Parameters in all cases: Eurofins recombinant human kinase profiling, remaining kinase activity as % of control, 10 uM ATP
# Details in all cases: ATP 10 uM; read-out: %Ctrl@10 μM
# [1] = target: STK32C(h) (Homo sapiens, UniProt Q86UX6)
# How it was run: (§1)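 Recombinant human kinases, 401 in total, screened using an outsourced kinase profiling assay.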
# [2] = target: Src(T341M)(h) (Homo sapiens, UniProt P12931, T341M)
# How it was run: as §1
# [3] = target: Lyn(h) (Homo sapiens, UniProt P07948)
# How it was run: as §1
# [4] = target: NEK4(h) (Homo sapiens, UniProt P51957)
# NEK4(h), sequence (P51957 whole entry): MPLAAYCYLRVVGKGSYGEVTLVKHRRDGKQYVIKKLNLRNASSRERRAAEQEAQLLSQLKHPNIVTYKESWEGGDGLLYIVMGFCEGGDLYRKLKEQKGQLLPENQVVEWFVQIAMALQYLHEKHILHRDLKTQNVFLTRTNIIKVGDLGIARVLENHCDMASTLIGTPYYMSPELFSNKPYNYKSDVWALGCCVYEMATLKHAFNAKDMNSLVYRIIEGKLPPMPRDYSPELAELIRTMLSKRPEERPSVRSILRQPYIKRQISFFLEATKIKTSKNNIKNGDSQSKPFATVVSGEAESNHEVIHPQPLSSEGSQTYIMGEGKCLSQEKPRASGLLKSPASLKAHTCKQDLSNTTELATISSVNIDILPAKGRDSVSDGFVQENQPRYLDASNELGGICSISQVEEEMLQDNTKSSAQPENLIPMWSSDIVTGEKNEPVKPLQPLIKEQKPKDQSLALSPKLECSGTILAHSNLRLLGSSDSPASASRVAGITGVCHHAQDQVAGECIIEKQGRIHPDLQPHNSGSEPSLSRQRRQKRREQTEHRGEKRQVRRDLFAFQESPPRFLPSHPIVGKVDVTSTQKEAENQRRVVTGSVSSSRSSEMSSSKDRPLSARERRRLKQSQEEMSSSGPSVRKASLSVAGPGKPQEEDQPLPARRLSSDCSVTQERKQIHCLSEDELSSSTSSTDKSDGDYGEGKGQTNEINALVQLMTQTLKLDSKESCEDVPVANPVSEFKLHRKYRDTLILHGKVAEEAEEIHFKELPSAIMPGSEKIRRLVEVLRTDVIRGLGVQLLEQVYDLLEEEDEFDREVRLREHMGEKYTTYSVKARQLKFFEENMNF
# How it was run: as §1
# [5] = target: CaMKK2(h) (Homo sapiens, UniProt Q96RR4)
# How it was run: as §1
# [6] = target: TTBK1(h) (Homo sapiens, UniProt Q5TCY1)
# How it was run: as §1
# [7] = target: CDK4/cyclinD3(h) (Homo sapiens, UniProt P11802)
# How it was run: as §1
# [8] = target: T1, TAK1(h) (Homo sapiens, UniProt O43318)
# T1 construct: gene MAP3K7
# How it was run: as §1
# [9] = target: T2, Ros(h) (Homo sapiens, UniProt P08922)
# T2 construct: gene ROS1
# How it was run: as §1
# [10] = target: DDR2(h) (Homo sapiens, UniProt Q16832)
# How it was run: as §1
# [11] = target: T3, ALK1(h) (Homo sapiens, UniProt P37023)
# T3 construct: gene ACVRL1
# How it was run: as §1
# [12] = target: T4, CK1γ2(h) (Homo sapiens, UniProt P78368)
# T4 construct: gene CSNK1G2
# How it was run: as §1
# [13] = target: GRK6(h) (Homo sapiens, UniProt P43250)
# GRK6(h), sequence (P43250 whole entry): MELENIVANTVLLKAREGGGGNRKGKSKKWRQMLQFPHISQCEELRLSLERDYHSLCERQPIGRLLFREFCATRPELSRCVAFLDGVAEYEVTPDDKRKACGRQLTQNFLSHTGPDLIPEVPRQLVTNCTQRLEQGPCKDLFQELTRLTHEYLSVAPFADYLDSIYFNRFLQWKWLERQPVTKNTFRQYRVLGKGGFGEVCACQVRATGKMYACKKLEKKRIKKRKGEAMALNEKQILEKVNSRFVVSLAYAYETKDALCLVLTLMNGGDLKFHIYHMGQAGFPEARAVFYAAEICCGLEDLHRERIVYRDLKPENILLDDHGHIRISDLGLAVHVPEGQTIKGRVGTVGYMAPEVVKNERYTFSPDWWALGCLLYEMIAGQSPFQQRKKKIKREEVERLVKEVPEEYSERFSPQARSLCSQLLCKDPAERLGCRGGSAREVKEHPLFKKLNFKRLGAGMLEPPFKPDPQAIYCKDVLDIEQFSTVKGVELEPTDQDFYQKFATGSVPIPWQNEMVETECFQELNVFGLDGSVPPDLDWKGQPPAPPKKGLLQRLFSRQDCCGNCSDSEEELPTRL
# How it was run: as §1
# [14] = target: Wee1(h) (Homo sapiens, UniProt P30291)
# Wee1(h), sequence (P30291 whole entry): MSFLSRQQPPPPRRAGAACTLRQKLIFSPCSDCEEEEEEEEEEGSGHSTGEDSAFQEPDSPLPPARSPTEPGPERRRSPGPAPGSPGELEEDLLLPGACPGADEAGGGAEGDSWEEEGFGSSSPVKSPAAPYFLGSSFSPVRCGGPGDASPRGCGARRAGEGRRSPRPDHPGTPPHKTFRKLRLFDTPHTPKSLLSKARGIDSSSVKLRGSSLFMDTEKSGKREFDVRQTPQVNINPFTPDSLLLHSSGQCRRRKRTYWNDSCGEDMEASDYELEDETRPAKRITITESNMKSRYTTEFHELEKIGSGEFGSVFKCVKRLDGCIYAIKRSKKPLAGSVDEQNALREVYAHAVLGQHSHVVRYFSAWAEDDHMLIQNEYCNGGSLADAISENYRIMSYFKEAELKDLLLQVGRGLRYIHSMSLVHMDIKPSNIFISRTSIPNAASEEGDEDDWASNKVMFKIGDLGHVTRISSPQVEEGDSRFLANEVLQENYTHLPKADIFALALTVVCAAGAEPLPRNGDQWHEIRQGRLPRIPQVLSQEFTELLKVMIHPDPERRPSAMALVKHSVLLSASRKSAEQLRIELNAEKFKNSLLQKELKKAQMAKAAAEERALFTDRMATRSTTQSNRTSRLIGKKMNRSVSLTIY
# How it was run: as §1
# [15] = target: HIPK1(h) (Homo sapiens, UniProt Q86Z02)
# How it was run: as §1
# [16] = target: MuSK(h) (Homo sapiens, UniProt O15146)
# How it was run: as §1
# [17] = target: ErbB4(h) (Homo sapiens, UniProt Q15303)
# ErbB4(h), sequence (Q15303 whole entry): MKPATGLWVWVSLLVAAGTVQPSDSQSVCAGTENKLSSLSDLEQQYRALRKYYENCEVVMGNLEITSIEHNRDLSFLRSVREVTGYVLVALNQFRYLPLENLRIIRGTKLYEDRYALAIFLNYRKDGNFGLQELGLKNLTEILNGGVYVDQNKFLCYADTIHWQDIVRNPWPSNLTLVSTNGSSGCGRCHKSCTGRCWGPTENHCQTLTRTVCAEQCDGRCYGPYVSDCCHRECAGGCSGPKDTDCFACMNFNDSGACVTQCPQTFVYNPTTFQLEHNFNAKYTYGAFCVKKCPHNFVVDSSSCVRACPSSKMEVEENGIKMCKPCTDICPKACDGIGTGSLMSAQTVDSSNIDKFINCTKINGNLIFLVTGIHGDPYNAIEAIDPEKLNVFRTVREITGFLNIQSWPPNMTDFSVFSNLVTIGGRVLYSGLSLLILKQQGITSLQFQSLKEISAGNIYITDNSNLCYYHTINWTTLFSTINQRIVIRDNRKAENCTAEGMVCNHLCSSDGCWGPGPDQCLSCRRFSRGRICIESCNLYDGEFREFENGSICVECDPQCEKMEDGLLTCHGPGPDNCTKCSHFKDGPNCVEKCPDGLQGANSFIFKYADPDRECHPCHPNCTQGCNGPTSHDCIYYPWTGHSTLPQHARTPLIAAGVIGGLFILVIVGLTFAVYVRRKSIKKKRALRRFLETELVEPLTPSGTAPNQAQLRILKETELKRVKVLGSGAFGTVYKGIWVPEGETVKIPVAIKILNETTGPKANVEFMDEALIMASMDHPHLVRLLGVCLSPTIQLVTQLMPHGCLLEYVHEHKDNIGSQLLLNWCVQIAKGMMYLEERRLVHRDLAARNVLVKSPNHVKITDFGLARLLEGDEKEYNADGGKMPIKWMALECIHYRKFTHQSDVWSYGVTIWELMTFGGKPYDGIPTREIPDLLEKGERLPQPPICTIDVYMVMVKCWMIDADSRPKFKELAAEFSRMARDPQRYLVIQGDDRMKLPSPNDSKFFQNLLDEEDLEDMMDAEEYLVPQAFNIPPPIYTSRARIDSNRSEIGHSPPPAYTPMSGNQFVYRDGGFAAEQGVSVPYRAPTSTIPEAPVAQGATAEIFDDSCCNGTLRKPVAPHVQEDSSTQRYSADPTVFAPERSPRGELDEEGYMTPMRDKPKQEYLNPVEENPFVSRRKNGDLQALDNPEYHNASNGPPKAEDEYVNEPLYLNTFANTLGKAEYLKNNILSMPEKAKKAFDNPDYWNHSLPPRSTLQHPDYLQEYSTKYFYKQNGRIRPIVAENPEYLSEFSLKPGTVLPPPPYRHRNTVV
# How it was run: as §1
# [18] = target: EphB3(h) (Homo sapiens, UniProt P54753)
# How it was run: as §1
# [19] = target: IRAK4(h) (Homo sapiens, UniProt Q9NWZ3)
# How it was run: as §1
# [20] = target: Ret(V804M)(h) (Homo sapiens, UniProt P07949, V804M)
# How it was run: as §1
# [21] = target: JAK1(h) (Homo sapiens, UniProt P23458)
# JAK1(h), sequence (P23458 whole entry): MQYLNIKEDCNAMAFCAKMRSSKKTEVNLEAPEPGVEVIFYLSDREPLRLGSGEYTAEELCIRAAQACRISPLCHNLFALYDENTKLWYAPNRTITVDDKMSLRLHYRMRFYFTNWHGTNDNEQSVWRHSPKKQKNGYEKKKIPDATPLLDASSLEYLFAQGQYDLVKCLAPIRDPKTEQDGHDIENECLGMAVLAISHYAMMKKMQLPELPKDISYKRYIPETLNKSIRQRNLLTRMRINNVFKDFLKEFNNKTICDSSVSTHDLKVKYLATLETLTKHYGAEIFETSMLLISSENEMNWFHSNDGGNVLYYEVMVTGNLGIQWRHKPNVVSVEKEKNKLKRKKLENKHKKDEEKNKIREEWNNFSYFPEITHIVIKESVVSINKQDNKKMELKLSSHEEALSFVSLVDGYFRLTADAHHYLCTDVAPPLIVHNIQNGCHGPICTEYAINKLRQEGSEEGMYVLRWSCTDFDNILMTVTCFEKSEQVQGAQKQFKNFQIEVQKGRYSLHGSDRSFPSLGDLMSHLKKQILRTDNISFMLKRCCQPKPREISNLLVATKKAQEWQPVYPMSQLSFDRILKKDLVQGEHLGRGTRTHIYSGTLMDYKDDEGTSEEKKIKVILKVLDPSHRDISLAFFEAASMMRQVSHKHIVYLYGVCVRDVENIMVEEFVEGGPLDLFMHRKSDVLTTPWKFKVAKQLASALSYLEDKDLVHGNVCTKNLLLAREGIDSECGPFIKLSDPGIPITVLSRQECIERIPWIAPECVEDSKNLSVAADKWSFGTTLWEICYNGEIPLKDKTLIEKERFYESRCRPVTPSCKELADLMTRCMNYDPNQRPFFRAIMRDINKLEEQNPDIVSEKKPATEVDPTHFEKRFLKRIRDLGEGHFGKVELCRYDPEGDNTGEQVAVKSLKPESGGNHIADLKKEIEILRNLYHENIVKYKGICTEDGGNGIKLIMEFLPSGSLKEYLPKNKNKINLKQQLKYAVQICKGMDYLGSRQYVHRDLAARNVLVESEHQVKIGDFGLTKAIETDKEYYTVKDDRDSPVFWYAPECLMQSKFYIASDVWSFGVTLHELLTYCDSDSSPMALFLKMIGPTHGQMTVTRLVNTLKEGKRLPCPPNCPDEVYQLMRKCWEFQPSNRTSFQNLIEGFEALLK
# How it was run: as §1
# [22] = target: T5, MKK6(h) (Homo sapiens, UniProt P52564)
# T5 construct: gene MAP2K6
# T5 sequence (P52564 whole entry): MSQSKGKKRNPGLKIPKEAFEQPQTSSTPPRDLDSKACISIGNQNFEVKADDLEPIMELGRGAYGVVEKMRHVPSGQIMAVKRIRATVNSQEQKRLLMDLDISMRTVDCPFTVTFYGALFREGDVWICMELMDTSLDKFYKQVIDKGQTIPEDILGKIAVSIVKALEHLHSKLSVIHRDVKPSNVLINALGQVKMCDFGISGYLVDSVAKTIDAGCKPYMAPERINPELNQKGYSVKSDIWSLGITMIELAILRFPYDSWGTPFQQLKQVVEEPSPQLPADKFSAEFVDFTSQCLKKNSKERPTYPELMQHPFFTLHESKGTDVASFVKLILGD
# How it was run: as §1
# [23] = target: T6, DNA-PK(h) (Homo sapiens, UniProt P78527)
# T6 construct: gene PRKDC
# How it was run: as §1
structure (smiles),measurement,setting,value
C1=C(c2nc(-c3cnn(C4CCNCC4)c3)cn3cc(-c4ccccc4)nc23)CCOC1 [YL-939],remaining activity at 10 µM,[1],82%
same,remaining activity at 10 µM,[2],100%
same,remaining activity at 10 µM,[3],95%
same,remaining activity at 10 µM,[4],118%
same,remaining activity at 10 µM,[5],83%
same,remaining activity at 10 µM,[6],103%
same,remaining activity at 10 µM,[7],80%
same,remaining activity at 10 µM,[8],77%
same,remaining activity at 10 µM,[9],97%
same,remaining activity at 10 µM,[10],95%
same,remaining activity at 10 µM,[11],94%
same,remaining activity at 10 µM,[12],90%
same,remaining activity at 10 µM,[13],87%
same,remaining activity at 10 µM,[14],99%
same,remaining activity at 10 µM,[15],97%
same,remaining activity at 10 µM,[16],88%
same,remaining activity at 10 µM,[17],99%
same,remaining activity at 10 µM,[18],93%
same,remaining activity at 10 µM,[19],96%
same,remaining activity at 10 µM,[20],102%
same,remaining activity at 10 µM,[21],66%
same,remaining activity at 10 µM,[22],106%
same,remaining activity at 10 µM,[23],94%
